This note sets out measurements from ChEMBL document CHEMBL4842364 (J Med Chem, 2021).

A short description of series [1]: Half life in Beagle dog at 3 mg/kg, iv measured upto 24 hrs by LC-MS/MS analysis. The class given is ADME, organism-based, Canis lupus familiaris. The conditions noted are these: in vivo.
Series [2] is described as follows: AUC(0 to 24 hrs) in rat at 60 mg/kg, po. The class given is ADME, organism-based. The arrangement: time < 24 hr, route oral, dose 60 mg/kg. The conditions noted are these: in vivo.
The target in series [3] is T1, Serine/threonine-protein kinase Nek1 (Homo sapiens) (UniProt Q96PY6).
T1 sequence (whole entry): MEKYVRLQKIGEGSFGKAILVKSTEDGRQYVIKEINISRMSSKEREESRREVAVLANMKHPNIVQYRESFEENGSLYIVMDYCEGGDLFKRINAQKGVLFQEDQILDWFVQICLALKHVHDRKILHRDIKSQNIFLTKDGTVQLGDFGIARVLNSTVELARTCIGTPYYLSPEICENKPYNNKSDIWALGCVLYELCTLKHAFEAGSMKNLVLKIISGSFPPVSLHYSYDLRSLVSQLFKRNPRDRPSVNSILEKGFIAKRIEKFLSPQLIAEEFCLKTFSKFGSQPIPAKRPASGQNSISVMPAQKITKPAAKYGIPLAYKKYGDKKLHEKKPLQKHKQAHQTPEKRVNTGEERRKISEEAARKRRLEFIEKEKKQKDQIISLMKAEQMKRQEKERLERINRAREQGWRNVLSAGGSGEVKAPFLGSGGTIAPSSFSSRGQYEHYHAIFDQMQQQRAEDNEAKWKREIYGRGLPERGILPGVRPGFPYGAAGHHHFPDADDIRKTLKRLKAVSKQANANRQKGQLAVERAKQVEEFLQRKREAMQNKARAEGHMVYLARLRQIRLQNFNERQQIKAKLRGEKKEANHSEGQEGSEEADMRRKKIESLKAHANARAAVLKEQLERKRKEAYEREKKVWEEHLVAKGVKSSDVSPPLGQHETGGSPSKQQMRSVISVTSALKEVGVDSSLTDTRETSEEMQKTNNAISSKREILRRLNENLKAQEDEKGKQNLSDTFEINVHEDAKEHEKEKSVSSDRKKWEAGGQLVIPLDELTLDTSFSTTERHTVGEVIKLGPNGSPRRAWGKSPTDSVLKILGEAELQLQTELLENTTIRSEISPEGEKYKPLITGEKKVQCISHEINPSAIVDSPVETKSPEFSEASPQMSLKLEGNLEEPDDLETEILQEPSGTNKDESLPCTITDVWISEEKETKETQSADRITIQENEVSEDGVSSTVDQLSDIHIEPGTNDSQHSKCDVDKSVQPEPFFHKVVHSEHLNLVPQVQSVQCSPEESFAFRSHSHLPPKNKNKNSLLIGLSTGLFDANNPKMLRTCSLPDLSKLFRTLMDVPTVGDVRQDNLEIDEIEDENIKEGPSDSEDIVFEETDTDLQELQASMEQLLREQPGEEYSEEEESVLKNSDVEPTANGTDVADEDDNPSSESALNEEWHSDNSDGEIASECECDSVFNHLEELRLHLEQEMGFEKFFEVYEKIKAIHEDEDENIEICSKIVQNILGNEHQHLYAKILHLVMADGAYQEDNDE
The series is described as follows: Inhibition of NEK1 (unknown origin) at 1 uM relative to control.

Series [4] addresses Serine/threonine-protein kinase PLK1 (Homo sapiens, UniProt P53350). Put plainly: Inhibition of PLK1 (unknown origin).
Series [5] addresses Voltage-gated inwardly rectifying potassium channel KCNH2 (Homo sapiens, UniProt Q12809). Put plainly: Inhibition of human ERG.
Series [6] has as its target T2, Mitogen-activated protein kinase kinase kinase 3 (Homo sapiens) (UniProt Q99759).
T2 sequence (whole entry): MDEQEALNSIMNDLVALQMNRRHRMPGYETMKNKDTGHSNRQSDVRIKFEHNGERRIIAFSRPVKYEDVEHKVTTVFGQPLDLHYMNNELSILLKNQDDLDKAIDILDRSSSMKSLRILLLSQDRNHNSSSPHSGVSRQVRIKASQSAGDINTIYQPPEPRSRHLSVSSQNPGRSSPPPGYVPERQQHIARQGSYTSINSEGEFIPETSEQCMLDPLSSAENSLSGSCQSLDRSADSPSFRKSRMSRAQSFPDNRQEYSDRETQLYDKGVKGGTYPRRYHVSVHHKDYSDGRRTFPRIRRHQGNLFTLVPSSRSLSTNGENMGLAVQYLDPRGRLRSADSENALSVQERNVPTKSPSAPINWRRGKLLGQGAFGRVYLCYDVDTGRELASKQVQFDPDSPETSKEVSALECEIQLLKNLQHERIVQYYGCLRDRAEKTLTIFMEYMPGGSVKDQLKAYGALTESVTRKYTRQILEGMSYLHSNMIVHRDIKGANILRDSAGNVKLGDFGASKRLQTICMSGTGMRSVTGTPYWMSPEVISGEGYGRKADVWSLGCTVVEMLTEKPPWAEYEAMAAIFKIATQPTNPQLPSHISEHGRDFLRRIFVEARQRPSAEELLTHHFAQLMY
The series is described as follows: Inhibition of MAP3K3 (unknown origin) at 1 uM relative to control.

Series [7] can be described thus: Thermodynamic solubility of compound. The class given is physicochemical. The conditions noted are these: read-out: Therm_solubility.
The target in series [8] is T3, Serine/threonine-protein kinase PLK2 (Homo sapiens, UniProt Q9NYY3). The series is described as follows: Inhibition of PLK2 (unknown origin) at 1 uM relative to control.
Target sequence in this assay (Q9NYY3 whole entry, looked up): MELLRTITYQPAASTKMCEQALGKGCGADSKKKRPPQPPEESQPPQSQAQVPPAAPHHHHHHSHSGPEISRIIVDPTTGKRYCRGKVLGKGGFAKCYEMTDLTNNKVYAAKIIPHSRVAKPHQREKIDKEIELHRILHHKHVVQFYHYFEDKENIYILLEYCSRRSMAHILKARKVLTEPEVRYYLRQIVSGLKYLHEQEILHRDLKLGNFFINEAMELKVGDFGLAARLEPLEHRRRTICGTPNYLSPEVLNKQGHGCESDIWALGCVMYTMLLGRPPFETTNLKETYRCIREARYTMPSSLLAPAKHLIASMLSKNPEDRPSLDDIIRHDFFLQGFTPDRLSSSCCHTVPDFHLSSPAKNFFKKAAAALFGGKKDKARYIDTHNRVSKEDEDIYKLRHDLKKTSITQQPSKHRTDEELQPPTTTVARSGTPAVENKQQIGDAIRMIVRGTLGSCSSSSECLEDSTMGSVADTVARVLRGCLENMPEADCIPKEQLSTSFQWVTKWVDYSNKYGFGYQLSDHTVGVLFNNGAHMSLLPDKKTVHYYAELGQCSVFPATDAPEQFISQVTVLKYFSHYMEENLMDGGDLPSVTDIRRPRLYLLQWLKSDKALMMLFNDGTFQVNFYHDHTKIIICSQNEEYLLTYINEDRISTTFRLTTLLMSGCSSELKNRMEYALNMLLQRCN
Series [9] deals with T3, Serine/threonine-protein kinase PLK2. The series is described as follows: Inhibition of PLK2 (unknown origin).
Target sequence in this assay (Q9NYY3 whole entry): as the sequence (Q9NYY3 whole entry, looked up) above

≈ marks a conversion by molar mass, not a printed value. Where only a bound is given, the exact number is not on record here.

Serine/threonine-protein kinase PLK1, sequence (P53350 whole entry): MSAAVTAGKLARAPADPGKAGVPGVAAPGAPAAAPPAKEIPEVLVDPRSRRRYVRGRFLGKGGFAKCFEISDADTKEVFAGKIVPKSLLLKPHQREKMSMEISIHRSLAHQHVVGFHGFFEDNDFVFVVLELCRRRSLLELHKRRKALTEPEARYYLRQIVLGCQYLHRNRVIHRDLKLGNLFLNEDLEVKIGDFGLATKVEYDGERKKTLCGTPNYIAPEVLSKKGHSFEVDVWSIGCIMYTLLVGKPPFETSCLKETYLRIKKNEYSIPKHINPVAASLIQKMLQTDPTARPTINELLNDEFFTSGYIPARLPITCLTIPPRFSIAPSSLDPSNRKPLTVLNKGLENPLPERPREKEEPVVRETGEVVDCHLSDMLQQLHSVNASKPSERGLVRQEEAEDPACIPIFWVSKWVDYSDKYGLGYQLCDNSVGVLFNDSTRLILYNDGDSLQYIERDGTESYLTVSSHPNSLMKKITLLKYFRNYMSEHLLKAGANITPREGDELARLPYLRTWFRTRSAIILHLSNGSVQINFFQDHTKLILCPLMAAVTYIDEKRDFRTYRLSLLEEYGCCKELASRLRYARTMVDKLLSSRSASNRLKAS
Voltage-gated inwardly rectifying potassium channel KCNH2, sequence (Q12809 whole entry): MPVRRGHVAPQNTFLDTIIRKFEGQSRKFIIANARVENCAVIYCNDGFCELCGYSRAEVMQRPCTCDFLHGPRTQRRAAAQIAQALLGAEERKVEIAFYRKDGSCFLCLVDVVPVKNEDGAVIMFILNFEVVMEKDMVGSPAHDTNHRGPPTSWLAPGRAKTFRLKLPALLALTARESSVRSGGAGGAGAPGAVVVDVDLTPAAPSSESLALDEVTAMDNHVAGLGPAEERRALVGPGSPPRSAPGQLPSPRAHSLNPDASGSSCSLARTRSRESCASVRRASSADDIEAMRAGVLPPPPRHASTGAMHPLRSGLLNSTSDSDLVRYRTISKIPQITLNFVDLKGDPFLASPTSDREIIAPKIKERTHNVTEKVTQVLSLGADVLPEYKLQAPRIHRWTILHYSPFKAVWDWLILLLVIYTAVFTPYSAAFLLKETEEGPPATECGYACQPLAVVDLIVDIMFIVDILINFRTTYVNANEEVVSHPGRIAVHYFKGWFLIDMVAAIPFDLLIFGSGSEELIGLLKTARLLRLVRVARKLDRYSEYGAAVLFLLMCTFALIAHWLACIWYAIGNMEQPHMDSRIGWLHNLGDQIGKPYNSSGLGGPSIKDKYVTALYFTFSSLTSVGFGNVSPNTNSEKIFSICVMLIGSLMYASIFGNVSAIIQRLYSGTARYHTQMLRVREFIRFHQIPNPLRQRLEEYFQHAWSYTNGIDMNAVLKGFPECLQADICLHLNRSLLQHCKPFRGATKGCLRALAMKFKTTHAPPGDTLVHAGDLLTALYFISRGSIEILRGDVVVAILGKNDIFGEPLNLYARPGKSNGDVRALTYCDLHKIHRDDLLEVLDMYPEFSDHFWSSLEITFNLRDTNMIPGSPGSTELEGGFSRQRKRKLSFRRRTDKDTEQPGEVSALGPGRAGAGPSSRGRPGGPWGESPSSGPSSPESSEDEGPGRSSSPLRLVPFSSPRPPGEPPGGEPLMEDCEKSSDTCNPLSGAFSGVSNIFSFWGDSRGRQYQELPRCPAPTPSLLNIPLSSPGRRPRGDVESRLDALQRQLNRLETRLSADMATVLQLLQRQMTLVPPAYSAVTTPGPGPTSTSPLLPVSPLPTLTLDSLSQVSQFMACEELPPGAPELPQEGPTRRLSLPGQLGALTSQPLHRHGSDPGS

By half-life is commonly meant how long it takes for the measured level to halve. A high value points to slow loss. The term AUC(0-t) denotes the area under the concentration-time curve up to a stated or last time point. A low value points to less exposure. The inhibition is the drop in the measured response relative to a control, in per cent. The low end stands for a weak effect, the high end for a strong effect. As a reminder, the IC50 is the concentration at which inhibition is half-maximal. Higher therefore signals a need for much substance. In [1], `C=CCn1c(=O)c2cnc(Nc3ccc(N4CCN(C)CC4)cc3)nc2n1-c1ccc2c(n1)C(O)(CC)CC2` (racemic) had a half-life of 1.4 h. The compound also registered an AUC(0-t) at 24 h in series [2] of 27 µM·h. Also, the inhibition in series [3] was 75%; in series [6] it was 75%; in series [8], above 90%. The values for the IC50 in series [4], in series [5] and in series [9] were 0.227 µM, above 30 µM and 0.04 µM, respectively. For the same compound, the solubility thermodynamic in [7] was 2130 µM (≈ 1120 µg/mL).
